{"source": "patent US11377425B1", "about": "“Small molecule modulators of IL-17” (LEO Pharma A/S, priority 2018, dated 2022)", "data": [{"tested_on": "not listed separately", "test": "In vivo dosing of compounds in mouse (pharmacokinetics, PO and i.v.)", "conditions": "female, Balb/C, whole blood, oral dose of Example 32 50 mg/kg", "protocol": "Example 140. In Vivo Dosing of Compounds in Mouse\nMouse pharmacokinetics of Examples 32 and 135 were studied in female Balb/C mice. Animals were not fasted prior to the study and had access to water and certified rodent diet ad libitum during the study. The mice were weighed on the day of the study and the individual dose volumes were adjusted on a per kg body weight basis.\nOral dosing. The mice were dosed by oral gavage. Example 135 was dosed as a suspension in 1% methyl cellulose solution (10 mL/kg). Example 32 was dosed as a suspension in a formulation containing Betadex sulfobutyl ether sodium/PVP (polyvinyl pyrrolidone)/0.1% Citrate buffer pH 3 (20:5:75) (10 mL/kg).\nIntravenous dosing. The mice were dosed i.v. via the tail vein. The dose volume was 2 mL/kg of a solution of Example 32 (0.2 mg/mL) in DMSO/ethanol/water/propylene glycol (PG) (2:8:50:40).\nStudy samples. Blood was collected (exactly 20 μL per time point) from the saphenous vein of each animal into K2EDTA-coated capillaries. […] The compounds were quantified in blood by means of LC-MS/MS.\nStandard PK parameters were calculated using non-compartmental analysis in Phoenix WinNonLin 6.4 (Certara, Princeton, N.J.)\n(§1) The bioavailabilty (F) was calculated using the equation below, where AUC is the area under the curve for the oral and i.v. dosing routes and D is the dose given i.v. or orally. […]", "units": {"bioavailability": "%"}, "values": [{"smiles": "Cc1n[nH]c(C)c1-c1ccc(NC(=O)[C@@H](NC(=O)c2ccnn2C(C)C)C(C2CC2)C2CC2)cc1", "note": "(single isomer, unassigned) [Example 32]", "bioavailability": 26}]}, {"target": "T1, human IL-17AA (Homo sapiens, UniProt Q16552)", "T1 construct": "host or cells: HEK (human embryonic kidney) cells", "T1 sequence (Q16552 24-155)": "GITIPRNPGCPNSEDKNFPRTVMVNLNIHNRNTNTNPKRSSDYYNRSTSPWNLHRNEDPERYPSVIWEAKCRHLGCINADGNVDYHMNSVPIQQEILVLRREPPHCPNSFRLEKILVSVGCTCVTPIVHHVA", "test": "IL-8 release assay in human epithelial keratinocytes adult (HEKa)", "type": "cell-based", "conditions": "HEKa cells, 3 ng/mL HEK-human IL-17AA + 10 ng/mL human TNFalpha; read-out: Rel EC50 IL-8 release assay", "how_it_was_run": "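Adult human epidermal keratinocytes stimulated 68-72 h at 37 °C with 3 ng/mL HEK-derived human IL-17AA plus 10 ng/mL TNF-alpha (final) in the presence of compound; TNF-alpha alone defines 100% inhibition. Secreted IL-8 measured by HTRF as percent of controls; relative IC50/Emax from four-parameter fit (r^2>0.9), cytotoxicity by PrestoBlue.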", "units": {"EC50": "µM"}, "values": [{"smiles": "Cc1n[nH]c(C)c1-c1ccc(NC(=O)[C@@H](NC(=O)c2ccnn2C(C)C)C(C2CC2)C2CC2)cc1", "note": "(single isomer, unassigned) [Example 32]", "EC50": "< 0.1"}, {"smiles": "Cc1n[nH]c(C)c1-c1ccc(NC(=O)[C@@H](NC(=O)c2ccnn2[C@H](C)CO)C(C)C2CCC2)cc1", "note": "(single isomer, unassigned) [Example 164]", "EC50": "0.1 to 1"}, {"smiles": "CCn1nccc1C(=O)N[C@H](C(=O)Nc1ccc(-c2c(C)n[nH]c2C)cc1)C1CCC(F)(F)CC1", "note": "[Example 18, N-[(1S)-1-(4,4-difluorocyclohexyl)-2-[4-(3,5-dimethyl-1H-pyrazol-4-yl)anilino]-2-oxo-ethyl]-2-ethyl-pyrazole-3-carboxamide]", "EC50": "0.1 to 1"}, {"smiles": "Cc1nccn1-c1ccc(NC(=O)[C@@H](NC(=O)c2ccnn2C)[C@@H]2CCCc3ccccc32)cc1", "note": "[Example 378, 2-methyl-N-[(1S)-2-[4-(2-methylimidazol-1-yl)anilino]-2-oxo-1-[(1R)-tetralin-1-yl]ethyl]pyrazole-3-carboxamide]", "EC50": "> 1"}, {"smiles": "Cc1n[nH]c(C)c1-c1ccc(NC(=O)[C@@H](NC(=O)C2(F)CC2)C(C2CC2)C2CC2)cc1O", "note": "[Example 415, N-[(1S)-1-(dicyclopropylmethyl)-2-[4-(3,5-dimethyl-1H-pyrazol-4-yl)-3-hydroxy-anilino]-2-oxo-ethyl]-1-fluoro-cyclopropanecarboxamide]", "EC50": "0.1 to 1"}, {"smiles": "Cc1n[nH]c(C)c1-c1ccc(NC(=O)[C@@H](NC(=O)c2ccnn2C)C(C)C2CCCC2)cc1", "note": "(mixture of isomers) [Example 221]", "EC50": "0.1 to 1"}, {"smiles": "Cc1n[nH]c(C)c1-c1ccc(NC(=O)[C@@H](NC(=O)c2ccnn2C)C2CCCCC2(C)C)cc1", "note": "(stereo partly drawn) [Example 230, N-[(1S)-1-(2,2-dimethylcyclohexyl)-2-[4-(3,5-dimethyl-1H-pyrazol-4-yl)anilino]-2-oxo-ethyl]-2-methyl-pyrazole-3-carboxamide]", "EC50": "< 0.1"}, {"smiles": "Cc1n[nH]c(C)c1-c1ccc(NC(=O)[C@@H](Cc2ccccc2)NC(=O)c2ccnn2C)cc1", "note": "[Example 297, N-[(1R)-1-benzyl-2-[4-(3,5-dimethyl-1H-pyrazol-4-yl)anilino]-2-oxo-ethyl]-2-methyl-pyrazole-3-carboxamide]", "EC50": "> 1"}, {"smiles": "Cn1cncc1-c1ccc(NC(=O)C(NC(=O)c2ccnn2C)C(c2cccc(F)c2)c2cccc(F)c2)cc1", "note": "(single isomer, unassigned) [Example 374A, N-(1,1-Bis(3-Fluorophenyl)-3-((4-(1-methyl-1H-imidazol-5-yl)phenyl)amino)-3-oxopropan-2-yl)-1-methyl-1H-pyrazole-5-carboxamide]", "EC50": "> 1"}, {"smiles": "Cc1n[nH]c(C)c1-c1ccc(NC(=O)[C@@H](NC(=O)c2cnnn2C(C)C)C2CCCCC2)cc1", "note": "[Example 75, N-[(1S)-1-cyclohexyl-2-[4-(3,5-dimethyl-1H-pyrazol-4-yl)anilino]-2-oxo-ethyl]-3-isopropyl-triazole-4-carboxamide]", "EC50": "0.1 to 1"}, {"smiles": "CCn1nccc1C(=O)N[C@H](C(=O)Nc1ccc(-c2c(C)n[nH]c2C)cc1)[C@H]1CCCC(F)(F)C1", "note": "[Example 22, N-[(1S)-1-[(1S)-3,3-difluorocyclohexyl]-2-[4-(3,5-dimethyl-1H-pyrazol-4-yl)anilino]-2-oxo-ethyl]-2-ethyl-pyrazole-3-carboxamide]", "EC50": "0.1 to 1"}, {"smiles": "CCn1nccc1C(=O)N[C@@H](CC1CCCCC1)C(=O)Nc1ccc(-c2c(C)n[nH]c2C)cc1", "note": "[Example 16, N-[(1S)-1-(cyclohexylmethyl)-2-[4-(3,5-dimethyl-1H-pyrazol-4-yl)anilino]-2-oxo-ethyl]-2-ethyl-pyrazole-3-carboxamide]", "EC50": "0.1 to 1"}, {"smiles": "Cc1[nH]ncc1-c1ccc(NC(=O)[C@@H](NC(=O)c2ccnn2C)C(c2ccccc2)c2ccccc2)cc1", "note": "[Example 400, N-[(1S)-1-Benzhydryl-2-[4-(3-methyl-1H-pyrazol-4-yl)anilino]-2-oxo-ethyl]-2-methyl-pyrazole-3-carboxamide]", "EC50": "0.1 to 1"}, {"smiles": "Cc1n[nH]c(CO)c1-c1ccc(NC(=O)[C@@H](NC(=O)c2ccnn2C)C(c2ccccc2)c2ccccc2)cc1", "note": "[Example 447, N-[(1S)-1-benzhydryl-2-[4-[5-(hydroxymethyl)-3-methyl-1H-pyrazol-4-yl]anilino]-2-oxo-ethyl]-2-methyl-pyrazole-3-carboxamide]", "EC50": "0.1 to 1"}, {"smiles": "CCn1nccc1C(=O)N[C@H](C(=O)Nc1ccc(-c2c(C)ncn2C)c(O)c1)C(C1CC1)C1CC1", "note": "[Example 362, N-[(1S)-1-(dicyclopropylmethyl)-2-[4-(3,5-dimethylimidazol-4-yl)-3-hydroxy-anilino]-2-oxo-ethyl]-2-ethyl-pyrazole-3-carboxamide]", "EC50": "0.1 to 1"}, {"smiles": "Cc1n[nH]c(C)c1-c1ccc(NC(=O)[C@@H](NC(=O)c2ccnn2CCS(C)(=O)=O)C(C2CC2)C2CC2)cc1", "note": "[Example 158, N-[(1S)-1-(dicyclopropylmethyl)-2-[4-(3,5-dimethyl-1H-pyrazol-4-yl)anilino]-2-oxo-ethyl]-2-(2-methylsulfonylethyl) pyrazole-3-carboxamide]", "EC50": "< 0.1"}, {"smiles": "Cc1n[nH]c(C)c1-c1ccc(NC(=O)[C@@H](NC(=O)c2ccnn2C)[C@@H]2CCc3ccc(Br)cc32)cc1", "note": "[Example 4, N-[(1S)-1-[(1R)-6-bromoindan-1-yl]-2[4-(3,5-dimethyl-1H-pyrazol-4-yl)anilino]-2-oxo-ethyl]-2-methyl-pyrazole-3-carboxamide]", "EC50": "0.1 to 1"}]}, {"tested_on": "not listed separately", "test": "In vivo dosing of compounds in dog (pharmacokinetics, PO and i.v.)", "set-up": "species or system dog (male Beagles)", "conditions": "male, Beagle, whole blood, oral dose of Example 32 1 mg/kg", "protocol": "Example 139. In Vivo Dosing of Compounds in Dog\nDog pharmacokinetics (PK) of Examples 32 and 135 were studied in male Beagles. On the day of dosing, the animals were fasted overnight. They had free access to drinking water, except in immediate connection with dosing, and were allowed to eat from 4 hrs after dosing and onwards. The dogs were weighed on the morning prior to dosing and the individual dose volumes were adjusted on a per kg body weight basis.\nOral dosing. The dogs were dosed PO by oral gavage. The test compounds were dosed as suspensions in 1% methyl cellulose solution (2.5 mL/kg). The stomach tube was then flushed with at least 15 mL water post-dose to ensure that all test formulation entered the stomach.\nIntravenous dosing. The dogs were dosed i.v. via an in-dwelling catheter in venae cephalica. The dose volume was 1 mL/kg of a solution of Example 32 (0.3 mg/mL) in HPB (hydroxypropyl beta cyclodextrin)/PEG-4 (polyethylene glycol-4)/water (20:20:60). […]\nStudy samples. […] The compounds were quantified in blood by means of LC-MS/MS.\nStandard PK parameters were calculated using non-compartmental analysis and Phoenix WinNonLin 6.4 (Certara, Princeton, N.J.).\nas §1", "units": {"bioavailability": "%"}, "values": [{"smiles": "Cc1n[nH]c(C)c1-c1ccc(NC(=O)[C@@H](NC(=O)c2ccnn2C(C)C)C(C2CC2)C2CC2)cc1", "note": "(single isomer, unassigned) [Example 32]", "bioavailability": 23}]}]}
